The values below come from US20200392116A1, “SUBSTITUTED HETEROCYCLES AS c-MYC TARGETING AGENTS” (NORTHWESTERN UNIVERSITY, priority 2019, published 2020).

In one data set the test system is DNA damage (rH2AX). The data set can be described thus: rH2AX staining assay for DNA damage. In kind it is cell-based. As to the method: Min9 (NUCC-0176234) was also tested for its ability to cause DNA damage in an rH2AX staining assay. We would not expect cMYC-targeting agents to produce significant DNA damage. Compounds that act directly against DNA such as doxorubicin do however. […] (See FIG. 6).

Data set [1] deals with cMYC wild-type (WT) and cMYC KO line. The data set can be described thus: Cell viability assay, cMYC wild-type line versus cMYC KO line. The format is cell-based. Here is the method:
Min9 (NUCC-0176234) was also tested in a cell viability assay against a cMYC wild-type (WT) and a cMYC KO line.

Data set [2] in a line: Potency code of Table 2 (assay not stated).
The next data set addresses MYC/Max binding to DNA (Homo sapiens, UniProt P01106). As to the kind of experiment: Electrophoretic mobility shift assay (EMSA) of MYC/Max binding to DNA. The settings on record: in words. Here is the method: We also tested our best hit compound Min9 (NUCC-0176234) and newly synthesized analogs for effects of these compounds on MYC/Max binding to DNA in electrophoretic mobility shift assays (EMSAs). (See FIG. 5a and FIG. 5b). We expected the active compounds to impair MYC/Max binding to DNA. Several structural analogs of Min9 were tested over multiple doses for inhibiting MYC-DNA binding and we observed a dose-dependent inhibition. (See FIG. 5c).

The nature of data set [3]: Pharmacokinetics in mice after IV dosing. In kind it is in vivo. The settings on record: 5 mg/kg intravenously. Here is the method: The pharmacokinetics of NUCC-176242 and NUCC-176248 were studied in mice by administering a dose of 5 mg/kg intravenously and measuring the plasma concentration versus time. (See FIG. 10).
The pharmacokinetics of NUCC-176242 and NUCC-176248 were studied in mice by administering a dose of 5 mg/kg intravenously and measuring the plasma concentration versus time.

Data set [4] can be described thus: In vitro metabolism with mouse S9 fraction. The format is in vitro ADME. Here is the method: In vitro metabolism of NUCC-176242 and NUCC-176248 were tested using mouse liver microsomes and a mouse S9 fraction. (See FIG. 9).
In vitro metabolism of NUCC-176242 and NUCC-176248 were tested using mouse liver microsomes and a mouse S9 fraction.

For another data set, the system named is PC12 cells. The data set can be described thus: Cell viability / proliferation of PC12 cells (MTS). In kind it is cell-based. Here is the method: (§1) PC3 prostate cancer cell line with high Myc level and PC12 pheochromocytoma tumor cell line with non functional Max protein, which is not dependent on Myc-Max complex, were phased from ATCC. Cells were plated in 96 well plate at 1000 cells per well, and Myc inhibitor 361 at various concentrations was added to the cells next day. After 3 days of treatment, fresh medium with 361 were added again, and cell viability was measured by MTS assay at day 5 after the treatment. (See FIG. 11).

The test system of the next data set is MycCap cells. The data set can be described thus: Cell viability of MycCap cells. The format is cell-based.
The test system of data set [5] is MYC transcriptional activity (c-Myc E-box-luciferase reporter, MycCap cells). The data set can be described thus: MYC E-box luciferase reporter assay. In kind it is cell-based. The settings on record: 4 hours of treatment. In short, it runs like this:
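MycCap cells stably carrying c-Myc E-box-luciferase reporter, with CMV-luciferase MycCap-luc as counterpart, seeded 10000 cells/well and treated next day with serial compound dilutions. Luminescence read at 4 h immediately after adding 150 μg/ml luciferin.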
For orientation: Reporter assays use an easily measured gene product as a stand-in for the process of interest.

In data set [6] the test system is PC3 prostate cancer cell line. As to the kind of experiment: Proliferation assay of PC3 cells (MTS). The settings on record: Myc dependent cell line. In kind it is cell-based. As to the method: as §1
Data set [7] has as its system MycCap tumor. The data set can be described thus: MycCap FVB allograft model. In kind it is in vivo, FVB mice. The settings on record: mouse prostate cancer allograft, intra-peritoneally. As to the method: FVB mice were inoculated with 1×10^6 of MycCap cells in 100 ul of matrigel subcutaneously on both flanks of the mice. When tumor size reached average size of 150 mm^3, mice were randomized based on tumor volume to 2 groups. Mice were administered with 50 mg/kg of 361 or vehicle(Veh) twice daily intra-peritoneally for two days. The treatment was suspended for 10 day, and initiated the treatment with a lower dose […] daily for another 9 days. Tumor size was measured twice a week during the experiment. (See FIG. 15).

Data set [8] relates to MycCap tumor. As to the kind of experiment: MycCap FVB allograft model, combination with anti-PD-1 immunotherapy. The format is in vivo, FVB mice. The settings on record: combination with anti-PD-1 antibody. Here is the method: MycCap FVB allograft model was treated with 361 (50 mg/kg) for two days, following by two days of anti-PD-1 antibody (100 ug/day), and kept this 4-day treatment cycle for 4 cycles. (See FIG. 16).

MYC/Max binding to DNA, sequence (P01106 whole entry): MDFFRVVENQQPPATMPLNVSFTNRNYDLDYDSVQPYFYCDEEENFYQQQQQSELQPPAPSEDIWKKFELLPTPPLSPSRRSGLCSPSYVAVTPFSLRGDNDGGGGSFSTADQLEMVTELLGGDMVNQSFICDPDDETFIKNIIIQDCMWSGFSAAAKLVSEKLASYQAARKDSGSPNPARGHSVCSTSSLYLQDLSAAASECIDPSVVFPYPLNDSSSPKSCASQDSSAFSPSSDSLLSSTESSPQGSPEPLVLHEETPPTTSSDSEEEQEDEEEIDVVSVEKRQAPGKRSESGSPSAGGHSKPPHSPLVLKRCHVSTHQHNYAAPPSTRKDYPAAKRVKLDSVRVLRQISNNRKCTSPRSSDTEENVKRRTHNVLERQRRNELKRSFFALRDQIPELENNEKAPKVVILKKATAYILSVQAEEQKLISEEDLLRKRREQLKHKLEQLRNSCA

Regarding `CCc1ccc(Oc2c[nH]nc2-c2ccc(OCc3cnn(-c4ccccc4)c3)cc2O)cc1` [NUCC-0176234], the DNA damage entry in the data set on DNA damage (rH2AX) is given as “essentially no DNA damage”. In [1], the “cell viability, WT line versus KO cells” value is “reduces cell viability much more in the WT line than the KO cells”. In addition, the Potency code entry in data set [2] is listed as “+ (>40 +)”. At MYC/Max binding to DNA, the “inhibition of MYC/Max (c-MYC) binding to DNA” value is on record as “prevent c-MYC/DNA binding”.

Take `CCc1ccc(Oc2c(-c3ccc(OCc4ccc(Cl)cc4)cc3O)n[nH]c2C(F)(F)F)cc1` [NUCC-0176242]: the “in vivo metabolism (plasma concentration versus time)” value in data set [3] is on record as “correlated well with the observed in vitro metabolism”. Moreover, the “metabolism by mouse S9 fraction” value in data set [4] is given as “significantly metabolism by the mouse S9 fraction versus NUCC-176248”. Also, the Potency code result in data set [2] is reported as “++ (30-40 ++)”.

Broadly, the IC50 is the midpoint of a concentration-inhibition curve. Read a high IC50 as a need for much substance. Consider `O=C1CCC(N2C(=O)c3cccc(OCc4cn(CCOCCOCCOCC(=O)Nc5ccc(COc6ccc(-c7cc(C(F)(F)F)n[nH]7)c(O)c6-c6cc(C(F)(F)F)cc(C(F)(F)F)c6)cc5)nn4)c3C2=O)C(=O)N1` (centres unmarked) [NUCC-0201202], for which the results for the IC50 with PC12 cells and with MycCap cells were 23.1 µM and 4 µM, respectively. For the same compound, the Potency code entry in data set [2] is “+++ (10-30 +++)”.

`Cn1nc(C(F)(F)F)cc1-c1ccc(OCc2ccc(Cl)cc2)c(-c2cc(C(F)(F)F)cc(C(F)(F)F)c2)c1O` [compound 361]: the c-Myc transcription activity entry in data set [5] is “inhibits c-Myc transcription activity as an early event before affecting cell viability”. Further, the “proliferation of PC3” value in data set [6] was “specifically inhibits proliferation”. The tumor volume entry in the data set with MycCap tumor [7] is recorded as “reduces tumor volume”. Besides, the tumor progression entry in the data set on MycCap tumor [8] is on record as “significantly blocks tumor progression”.
